Laboratory results published in patent US9493432B2, “Cyclopentylbenzamide derivatives and their use for the treatment of psychotic and cognitive disorders” (Takeda Pharmaceutical Company Limited, priority 2013, dated 2016).

Assays:
[1] = biological target: human orexin receptor 1 (Homo sapiens (Human), UniProt O43613); experiment: Orexin antagonist activity, intracellular calcium FLIPR assay (orexin receptor 1); format: cell-based; settings: RBL-2H3 cells stably expressing human orexin receptor 1; Ca2+ dye FLIPR; compound 15 minutes before orexin-A at approximately 80% maximal response; read-out: Human Orexin1R IC50
Procedure: (§1) Orexin antagonist activity was determined by measuring changes in intracellular calcium levels using a Ca^2+ sensitive fluorescent dye. The changes in fluorescent signal were monitored by Fluorescent Imaging Plate Reader (FLIPR™) technology available from Molecular Devices, LLC, U.S.A. Orexin mediated increases in intracellular Ca^2+ concentration were readily detected upon activation with orexin-A. Twenty-four hours prior to the assay, RBL-2H3 cells stably expressing either human orexin receptor 1 or human orexin receptor 2 were seeded in cell culture medium in black, clear-bottom 384-well plates (commercially available from Corning Inc., U.S.A.) and grown overnight at 37° C., 5% CO2. On the day of the assay, cell culture media was removed and cells were loaded with Calcium 5 Dye (commercially sold by Molecular Devices, LLC, U.S.A.) for 1 hour at 37° C., 5% CO2. Test compounds (at 10 point half log concentration response curves from 10 μM) were added to cells for 15 minutes prior to the addition of orexin-A to all wells, to achieve a final concentration that produces approximately an 80% maximal response. The IC50 values were determined from ten point concentration response curves. Curves were generated using the average of two wells for each data point.

[2] = biological target: human orexin receptor 2 (Homo sapiens (Human), UniProt O43614); experiment: Orexin antagonist activity, intracellular calcium FLIPR assay (orexin receptor 2); format: cell-based; settings: RBL-2H3 cells stably expressing human orexin receptor 2; Ca2+ dye FLIPR; compound 15 minutes before orexin-A at approximately 80% maximal response; read-out: Human Orexin2R IC50
Procedure: as §1

Chain of human orexin receptor 1 (O43613 whole entry): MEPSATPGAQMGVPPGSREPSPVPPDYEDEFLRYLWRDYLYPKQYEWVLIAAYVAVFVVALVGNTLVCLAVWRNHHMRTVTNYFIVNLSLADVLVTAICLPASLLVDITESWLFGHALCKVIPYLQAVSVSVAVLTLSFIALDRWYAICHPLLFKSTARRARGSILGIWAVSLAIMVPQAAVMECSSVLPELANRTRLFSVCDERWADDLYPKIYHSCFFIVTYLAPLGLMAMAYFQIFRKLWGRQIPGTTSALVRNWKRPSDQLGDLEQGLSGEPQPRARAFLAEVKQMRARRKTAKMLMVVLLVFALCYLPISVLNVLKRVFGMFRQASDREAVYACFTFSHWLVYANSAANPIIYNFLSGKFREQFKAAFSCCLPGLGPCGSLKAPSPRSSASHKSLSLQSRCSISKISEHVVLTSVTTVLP
Chain of human orexin receptor 2 (O43614 whole entry): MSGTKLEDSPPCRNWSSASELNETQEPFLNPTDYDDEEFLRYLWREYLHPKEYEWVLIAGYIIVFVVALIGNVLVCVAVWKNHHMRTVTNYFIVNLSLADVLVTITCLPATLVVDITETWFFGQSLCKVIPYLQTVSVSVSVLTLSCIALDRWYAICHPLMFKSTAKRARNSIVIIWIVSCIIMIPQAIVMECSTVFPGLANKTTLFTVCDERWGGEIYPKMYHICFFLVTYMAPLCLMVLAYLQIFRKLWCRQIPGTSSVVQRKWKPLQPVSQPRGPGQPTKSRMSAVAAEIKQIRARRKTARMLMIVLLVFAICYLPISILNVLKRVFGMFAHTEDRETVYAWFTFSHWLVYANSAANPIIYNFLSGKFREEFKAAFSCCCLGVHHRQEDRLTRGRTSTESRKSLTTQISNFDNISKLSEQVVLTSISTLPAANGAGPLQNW

Row | Compound | IC50 [1] | IC50 [2]
1 | COc1cccc(OC)c1C(=O)N[C@H]1CCC[C@@H]1Nc1nc2cc(Cl)ccc2s1 [Example 6, N-[(1S,2S)-2-[(5-Chloro-1,3-benzothiazol-2-yl)amino]cyclopentyl]-2,6-dimethoxybenzamide] | 35 nM | > 10 µM
2 | COc1cccc(OC)c1C(=O)N[C@H]1CCC[C@H]1Nc1nc2ccccc2o1 [Example 7, N-[(1S,2R)-2-[(1,3-Benzoxazol-2-yl)amino]cyclopentyl]-2,6-dimethoxybenzamide] | 26 nM | 1.9 µM
3 | COc1cccc(OC)c1C(=O)N[C@H]1CCC[C@@H]1N(C)c1nc2ccc(F)cc2s1 [Example 8, N-[(1S,2S)-2-[(6-Fluoro-1,3-benzothiazol-2-yl)(methyl)amino]cyclopentyl]-2,6-dimethoxybenzamide] | 35 nM | 2.1 µM
4 | COc1cccc(OC)c1C(=O)N[C@H]1CCC[C@@H]1Nc1nc2ccccc2o1 [Example 9, N-[(1S,2S)-2-[(1,3-Benzoxazol-2-yl)amino]cyclopentyl]-2,6-dimethoxy-benzamide] | 99 nM | > 10 µM
5 | COc1cccc(OC)c1C(=O)N[C@H]1CCC[C@@H]1Nc1nc2ccc(Cl)cc2s1 [Example 10, N-[(1S,2S)-2-[(6-Chloro-1,3-benzothiazol-2-yl)amino]cyclopentyl]-2,6-dimethoxybenzamide] | 210 nM | 7.2 µM
6 | COc1cccc(OC)c1C(=O)N[C@@H]1CCC[C@H]1Nc1nc2ccccc2s1 [Example 11, N-[(1R,2R)-2-[(1,3-Benzothiazol-2-yl)amino]cyclopentyl]-2,6-dimethoxybenzamide] | 360 nM | 1.8 µM
7 | COc1cccc(OC)c1C(=O)N[C@@H]1CCC[C@H]1Nc1nc2ccccc2o1 [Example 12, N-[(1R,2R)-2-[(1,3-Benzoxazol-2-yl)amino]cyclopentyl]-2,6-dimethoxy-benzamide] | 470 nM | 3.5 µM
8 | COc1cccc(OC)c1C(=O)N[C@@H]1CCC[C@@H]1Nc1nc2ccc(Cl)cc2s1 [Example 13, N-[(1R,2S)-2-[(6-Chloro-1,3-benzothiazol-2-yl)amino]cyclopentyl]-2,6-dimethoxybenzamide] | 580 nM | 5.3 µM
9 | COc1cccc(OC)c1C(=O)N[C@@H]1CCC[C@H]1Nc1nc2ccc(Cl)cc2s1 [Example 14, N-[(1R,2R)-2-[(6-Chloro-1,3-benzothiazol-2-yl)amino]cyclopentyl]-2,6-dimethoxybenzamide] | 1000 nM | 0.68 µM
10 | COc1cccc(OC)c1C(=O)N[C@H]1CCC[C@H]1Nc1nc2ccc(Cl)cc2s1 [Example 15, N-[(1S,2R)-2-[(6-Chloro-1,3-benzothiazol-2-yl)amino]cyclopentyl]-2,6-dimethoxybenzamide] | 35 nM | 0.16 µM
11 | Cc1ccc(-n2nccn2)c(C(=O)N[C@H]2CCC[C@@H]2Nc2nc3ccc(F)cc3s2)c1 [Example 16, N-[(1S,2S)-2-[(6-Fluoro-1,3-benzothiazol-2-yl)amino]cyclopentyl]-5-methyl-2-(2H-1,2,3-triazol-2-yl)benzamide] | 13 nM | 2 µM
12 | CCOc1cccc(OCC)c1C(=O)N[C@H]1CCC[C@H]1Nc1nc2ccccc2o1 [Example 18, N-[(1S,2R)-2-[(1,3-Benzoxazol-2-yl)amino]cyclopentyl]-2,6-diethoxy-benzamide] | 25 nM | 0.46 µM
13 | Cc1ccc(-n2nccn2)c(C(=O)N[C@H]2CCC[C@@H]2Nc2nc3ccccc3s2)c1 [Example 19, N-[(1S,2S)-2-[(1,3-Benzothiazol-2-yl)amino]cyclopentyl]-5-methyl-2-(2H-1,2,3-triazol-2-yl)benzamide] | 15 nM | 7.3 µM
14 | Cc1ccc(-n2nccn2)c(C(=O)N[C@H]2CCC[C@@H]2Nc2ccc3ccccc3n2)c1 [Example 20, 5-Methyl-N-[(1S,2S)-2-[(quinolin-2-yl)amino]cyclopentyl]-2-(2H-1,2,3-triazol-2-yl)benzamide] | 290 nM | 4.1 µM
15 | COc1cccc(OC)c1C(=O)NC1CN(C(=O)OCc2ccccc2)CC1Nc1nc2ccc(Cl)cc2s1 (stereo not drawn) [Example 22, Benzyl cis-3-[(6-chloro-1,3-benzothiazol-2-yl)amino]-4-[(2,6-dimethoxybenzene)amido]pyrrolidine-1-carboxylate] | 23 nM | 8.6 µM
16 | CCOC(=O)N1CC(NC(=O)c2c(OC)cccc2OC)C(Nc2nc3ccc(Cl)cc3s2)C1 (stereo not drawn) [Example 23, Ethyl cis-3-[(6-Chloro-1,3-benzothiazol-2-yl)amino]-4-[(2,6-dimethoxy-benzene)amido]pyrrolidine-1-carboxylate] | 65 nM | 0.62 µM

Row | Compound | IC50 [1] | IC50 [2]
17 | Cc1ccc(-n2nccn2)c(C(=O)NC2CCCC2Cc2ccc3ccccc3n2)c1 (stereo not shown) [Example 27, 5-Methyl-N-[2-(quinolin-2-ylmethyl)cyclopentyl]-2-(2H-1,2,3-triazol-2-yl)benzamide] | 52 nM | 8.5 µM
18 | CCOc1ccc(C)cc1C(=O)NC1CCCC1Cc1ccc2ccccc2n1 (stereo not shown) [Example 28, 2-Ethoxy-5-methyl-N-[2-(quinolin-2-ylmethyl)cyclopentyl]-benzamide] | 140 nM | 1.9 µM
19 | COc1cccc(OC)c1C(=O)NC1CCCC1Cc1ccc2ccccc2n1 (stereo not shown) [Example 29, 2,6-Dimethoxy-N-[2-(quinolin-2-ylmethyl)cyclopentyl]benzamide] | 550 nM | 2.9 µM
20 | CCOc1cccc(OCC)c1C(=O)NC1CCCC1Cc1ccc2ccccc2n1 (stereo not shown) [Example 30, 2,6-Diethoxy-N-(2-(quinolin-2-ylmethyl)cyclopentyl)benzamide] | 320 nM | 0.37 µM
21 | CCOc1ccc(C)cc1C(=O)NC1CCCC1Cc1ccc2ccccc2n1 (stereo not shown) [Example 31, 2-Ethoxy-5-methyl-N-(2-(quinolin-2-ylmethyl)cyclopentyl)-benzamide] | 92 nM | 3.3 µM
22 | COc1cccc(OC)c1C(=O)NC1CCCC1Cc1nc2ccc(Cl)cc2s1 (stereo not shown) [Example 32, N-{2-[(6-Chloro-1,3-benzothiazol-2-yl)methyl]cyclopentyl}-2,6-dimethoxybenzamide] | 900 nM | 0.98 µM
23 | COc1cccc(OC)c1C(=O)N(C)[C@H]1CCC[C@@H]1Nc1nc2ccc(F)cc2s1 [Example 34, N-[(1S,2S)-2-[(6-Fluoro-1,3-benzothiazol-2-yl)amino]cyclopentyl]-2,6-dimethoxy-N-methylbenzamide] | 4.7 nM | 1.1 µM
24 | O=C(N[C@H]1CCC[C@@H]1Nc1nc2ccc(F)cc2s1)c1ccccc1-n1cccn1 [Example 35, N-[(1S,2S)-2-[(6-Fluoro-1,3-benzothiazol-2-yl)amino]cyclopentyl]-2-(1H-pyrazol-1-yl)benzamide] | 6.7 nM | 4.3 µM
25 | O=C(N[C@H]1CCC[C@@H]1Nc1nc2ccc(F)cc2s1)c1cc(F)ccc1-n1nccn1 [Example 36, 5-Fluoro-N-[(1S,2S)-2-[(6-fluoro-1,3-benzothiazol-2-yl)amino]cyclopentyl]-2-(2H-1,2,3-triazol-2-yl)benzamide] | 8.3 nM | 5.4 µM
26 | O=C(N[C@H]1CCC[C@@H]1Nc1nc2ccc(F)cc2s1)c1ccccc1Cl [Example 37, 2-Chloro-N-[(1S,2S)-2-[(6-fluoro-1,3-benzothiazol-2-yl)amino]cyclopentyl]benzamide] | 11 nM | 3.5 µM
27 | Cc1ccc(-n2ccnn2)c(C(=O)N[C@H]2CCC[C@@H]2Nc2nc3ccc(F)cc3s2)c1 [Example 38, N-[(1S,2S)-2-[(6-Fluoro-1,3-benzothiazol-2-yl)amino]cyclopentyl]-5-methyl-2-(1H-1,2,3-triazol-1-yl)benzamide] | 13 nM | > 10 µM
28 | Cc1noc(-c2ccccc2C(=O)N[C@H]2CCC[C@@H]2Nc2nc3ccc(F)cc3s2)n1 [Example 39, N-[(1S,2S)-2-[(6-Fluoro-1,3-benzothiazol-2-yl)amino]cyclopentyl]-2-(3-methyl-1,2,4-oxadiazol-5-yl)benzamide] | 14 nM | 3.8 µM
29 | O=C(N[C@H]1CCC[C@@H]1Nc1nc2ccc(F)cc2s1)c1ccccc1-c1ncccn1 [Example 40, N-[(1S,2S)-2-[(6-Fluoro-1,3-benzothiazol-2-yl)amino]cyclopentyl]-2-(pyrimidin-2-yl)benzamide] | 15 nM | 3.3 µM
30 | COc1ccc(OC)c(C(=O)N[C@H]2CCC[C@@H]2Nc2nc3ccc(F)cc3s2)c1 [Example 41, N-[(1S,2S)-2-[(6-Fluoro-1,3-benzothiazol-2-yl)amino]cyclopentyl]-2,5-dimethoxybenzamide] | 16 nM | 2.1 µM
31 | O=C(N[C@H]1CCC[C@@H]1Nc1nc2ccc(F)cc2s1)c1ccccc1-n1ccnc1 [Example 43, N-[(1S,2S)-2-[(6-Fluoro-1,3-benzothiazol-2-yl)amino]cyclopentyl]-2-(1H-imidazol-1-yl)benzamide] | 39 nM | > 10 µM
32 | O=C(N[C@H]1CCC[C@@H]1Nc1nc2ccc(F)cc2s1)c1ccccc1-n1cncn1 [Example 44, N-[(1S,2S)-2-[(6-Fluoro-1,3-benzothiazol-2-yl)amino]cyclopentyl]-2-(1H-1,2,4-triazol-1-yl)benzamide] | 51 nM | > 10 µM
